≈ marks a conversion by molar mass, not a printed value. Calls of active or inactive are those of the source. The calls are words filed in the database; no cut-off is given here.

2 compounds from ChEMBL document CHEMBL1649545, “Efficacy of triazoles in a murine disseminated infection by Candida krusei” (2009) can be followed below.

Assay [1] has as its system Pichia kudriavzevii. Kind of assay: Antifungal activity against 5 x 10^7 CFU Candida krusei FMR9728 infected OF1 mouse disseminated infection model assessed as prolongation of mouse survival at 100 mg/kg/day, po for 5 days administered 24 hrs postinfection measured daily for 15 days. Type of assay: functional, organism-based.
Assay [2] deals with Pichia kudriavzevii. In words: Antifungal activity against 5 x 10^7 CFU Candida krusei FMR9728 infected OF1 mouse disseminated infection model assessed as prolongation of mouse survival at 50 mg/kg/day, po for 5 days administered 24 hrs postinfection measured daily for 15 days. The assay is classed as functional, organism-based.
Assay [3] concerns Pichia kudriavzevii. Kind of assay: Antifungal activity against Candida krusei FMR9728 by M27-A2 broth dilution method. Type of assay: functional.
The subject of assay [4] is Pichia kudriavzevii. In words: Antifungal activity against Candida krusei FMR9728 infected OF1 mouse disseminated infection model assessed as reduction in kidney tissue fungal burden at 50 mg/kg/day, po for 5 days administered 24 hrs postinfection measured after 24 hrs post treatment relative to control. The assay is classed as functional, organism-based.
Assay [5] concerns Pichia kudriavzevii. In words: Antifungal activity against 5 x 10^7 CFU Candida krusei FMR9729 infected OF1 mouse disseminated infection model assessed as prolongation of mouse survival at 100 mg/kg/day, po for 5 days administered 24 hrs postinfection measured daily for 15 days. The assay is classed as functional, organism-based.
Assay [6] deals with Pichia kudriavzevii. In words: Antifungal activity against Candida krusei FMR9729 infected OF1 mouse disseminated infection model assessed as reduction in spleen tissue fungal burden at 50 mg/kg/day, po for 5 days administered 24 hrs postinfection measured after 24 hrs post treatment relative to control. The assay is classed as functional, organism-based.
The subject of assay [7] is Pichia kudriavzevii. In words: Antifungal activity against Candida krusei FMR9729 by M27-A2 broth dilution method. Type of assay: functional. (Broth dilution looks for growth in wells or tubes with falling amounts of substance.)
Assay [8] deals with Pichia kudriavzevii. In words: Antifungal activity against Candida krusei FMR9728 infected OF1 mouse disseminated infection model assessed as reduction in spleen tissue fungal burden at 100 mg/kg/day, po for 5 days administered 24 hrs postinfection measured after 24 hrs post treatment relative to control. Type of assay: functional, organism-based.
Assay [9] relates to Pichia kudriavzevii. In words: Antifungal activity against Candida krusei FMR9729 infected OF1 mouse disseminated infection model assessed as reduction in spleen tissue fungal burden at 100 mg/kg/day, po for 5 days administered 24 hrs postinfection measured after 24 hrs post treatment relative to control. Type of assay: functional, organism-based.
Assay [10] concerns Pichia kudriavzevii. Kind of assay: Antifungal activity against Candida krusei FMR9728 infected OF1 mouse disseminated infection model assessed as reduction in spleen tissue fungal burden at 50 mg/kg/day, po for 5 days administered 24 hrs postinfection measured after 24 hrs post treatment relative to control. The assay is classed as functional, organism-based.
Assay [11] relates to Pichia kudriavzevii. Kind of assay: Antifungal activity against Candida krusei FMR9728 infected OF1 mouse disseminated infection model assessed as reduction in kidney tissue fungal burden at 100 mg/kg/day, po for 5 days administered 24 hrs postinfection measured after 24 hrs post treatment relative to control. Type of assay: functional, organism-based.
Assay [12] concerns Pichia kudriavzevii. Kind of assay: Antifungal activity against 5 x 10^7 CFU Candida krusei FMR9729 infected OF1 mouse disseminated infection model assessed as prolongation of mouse survival at 50 mg/kg/day, po for 5 days administered 24 hrs postinfection measured daily for 15 days. The assay is classed as functional, organism-based.
Assay [13] relates to Pichia kudriavzevii. Kind of assay: Antifungal activity against Candida krusei FMR9729 infected OF1 mouse disseminated infection model assessed as reduction in kidney tissue fungal burden at 100 mg/kg/day, po for 5 days administered 24 hrs postinfection measured after 24 hrs post treatment relative to control. The assay is classed as functional, organism-based.
The test system of assay [14] is Pichia kudriavzevii. In words: Antifungal activity against Candida krusei FMR9729 infected OF1 mouse disseminated infection model assessed as reduction in kidney tissue fungal burden at 50 mg/kg/day, po for 5 days administered 24 hrs postinfection measured after 24 hrs post treatment relative to control. Type of assay: functional, organism-based.
Assay [15] has as its system Pichia kudriavzevii. Kind of assay: Antifungal activity against 5 x 10^7 CFU Candida krusei FMR9728 infected OF1 mouse disseminated infection model assessed as prolongation of mouse survival at 60 mg/kg/day, po for 5 days administered 24 hrs postinfection measured daily for 15 days. Type of assay: functional, organism-based.
The subject of assay [16] is Pichia kudriavzevii. Kind of assay: Antifungal activity against Candida krusei FMR9729 infected OF1 mouse disseminated infection model assessed as reduction in kidney tissue fungal burden at 40 mg/kg/day, po for 5 days administered 24 hrs postinfection measured after 24 hrs post treatment relative to control. Type of assay: functional, organism-based.
Assay [17] deals with Pichia kudriavzevii. In words: Antifungal activity against 5 x 10^7 CFU Candida krusei FMR9728 infected OF1 mouse disseminated infection model assessed as prolongation of mouse survival at 40 mg/kg/day, po for 5 days administered 24 hrs postinfection measured daily for 15 days. Type of assay: functional, organism-based.
For assay [18], the system named is Pichia kudriavzevii. Kind of assay: Antifungal activity against Candida krusei FMR9728 infected OF1 mouse disseminated infection model assessed as reduction in kidney tissue fungal burden at 10 mg/kg/day, iv for 5 days administered 24 hrs postinfection measured after 24 hrs post treatment relative to control. The assay is classed as functional, organism-based.

Assay [19] concerns Pichia kudriavzevii. Kind of assay: Antifungal activity against Candida krusei FMR9728 infected OF1 mouse disseminated infection model assessed as reduction in spleen tissue fungal burden at 10 mg/kg/day, iv for 5 days administered 24 hrs postinfection measured after 24 hrs post treatment relative to control. The assay is classed as functional, organism-based.
Assay [20] deals with Pichia kudriavzevii. Kind of assay: Antifungal activity against Candida krusei FMR9729 infected OF1 mouse disseminated infection model assessed as reduction in spleen tissue fungal burden at 10 mg/kg/day, iv for 5 days administered 24 hrs postinfection measured after 24 hrs post treatment relative to control. Type of assay: functional, organism-based.
Assay [21] deals with Pichia kudriavzevii. Kind of assay: Antifungal activity against 5 x 10^7 CFU Candida krusei FMR9729 infected OF1 mouse disseminated infection model assessed as prolongation of mouse survival at 20 mg/kg/day, iv for 5 days administered 24 hrs postinfection measured daily for 15 days. Type of assay: functional, organism-based.
Assay [22] relates to Pichia kudriavzevii. In words: Antifungal activity against Candida krusei FMR9728 infected OF1 mouse disseminated infection model assessed as reduction in spleen tissue fungal burden at 20 mg/kg/day, iv for 5 days administered 24 hrs postinfection measured after 24 hrs post treatment relative to control. The assay is classed as functional, organism-based.
In assay [23] the test system is Pichia kudriavzevii. Kind of assay: Antifungal activity against Candida krusei FMR9728 infected OF1 mouse disseminated infection model assessed as reduction in kidney tissue fungal burden at 20 mg/kg/day, iv for 5 days administered 24 hrs postinfection measured after 24 hrs post treatment relative to control. The assay is classed as functional, organism-based.
For assay [24], the system named is Pichia kudriavzevii. Kind of assay: Antifungal activity against Candida krusei FMR9728 infected OF1 mouse disseminated infection model assessed as reduction in spleen tissue fungal burden at 40 mg/kg/day, po for 5 days administered 24 hrs postinfection measured after 24 hrs post treatment relative to control. Type of assay: functional, organism-based.
Assay [25] deals with Pichia kudriavzevii. Kind of assay: Antifungal activity against Candida krusei FMR9729 infected OF1 mouse disseminated infection model assessed as reduction in kidney tissue fungal burden at 10 mg/kg/day, iv for 5 days administered 24 hrs postinfection measured after 24 hrs post treatment relative to control. The assay is classed as functional, organism-based.
Assay [26] concerns Pichia kudriavzevii. In words: Antifungal activity against Candida krusei FMR9728 infected OF1 mouse disseminated infection model assessed as reduction in spleen tissue fungal burden at 60 mg/kg/day, po for 5 days administered 24 hrs postinfection measured after 24 hrs post treatment relative to control. The assay is classed as functional, organism-based.
Assay [27] concerns Pichia kudriavzevii. In words: Antifungal activity against Candida krusei FMR9729 infected OF1 mouse disseminated infection model assessed as reduction in kidney tissue fungal burden at 60 mg/kg/day, po for 5 days administered 24 hrs postinfection measured after 24 hrs post treatment relative to control. The assay is classed as functional, organism-based.
Assay [28] relates to Pichia kudriavzevii. Kind of assay: Antifungal activity against Candida krusei FMR9729 infected OF1 mouse disseminated infection model assessed as reduction in spleen tissue fungal burden at 60 mg/kg/day, po for 5 days administered 24 hrs postinfection measured after 24 hrs post treatment relative to control. Type of assay: functional, organism-based.
For assay [29], the system named is Pichia kudriavzevii. In words: Antifungal activity against Candida krusei FMR9729 infected OF1 mouse disseminated infection model assessed as reduction in spleen tissue fungal burden at 20 mg/kg/day, iv for 5 days administered 24 hrs postinfection measured after 24 hrs post treatment relative to control. The assay is classed as functional, organism-based.
Assay [30] has as its system Pichia kudriavzevii. Kind of assay: Antifungal activity against 5 x 10^7 CFU Candida krusei FMR9729 infected OF1 mouse disseminated infection model assessed as prolongation of mouse survival at 40 mg/kg/day, po for 5 days administered 24 hrs postinfection measured daily for 15 days. The assay is classed as functional, organism-based.
For assay [31], the system named is Pichia kudriavzevii. In words: Antifungal activity against 5 x 10^7 CFU Candida krusei FMR9729 infected OF1 mouse disseminated infection model assessed as prolongation of mouse survival at 60 mg/kg/day, po for 5 days administered 24 hrs postinfection measured daily for 15 days. The assay is classed as functional, organism-based.
Assay [32] concerns Pichia kudriavzevii. Kind of assay: Antifungal activity against Candida krusei FMR9729 infected OF1 mouse disseminated infection model assessed as reduction in kidney tissue fungal burden at 20 mg/kg/day, iv for 5 days administered 24 hrs postinfection measured after 24 hrs post treatment relative to control. The assay is classed as functional, organism-based.
Assay [33] deals with Pichia kudriavzevii. Kind of assay: Antifungal activity against 5 x 10^7 CFU Candida krusei FMR9728 infected OF1 mouse disseminated infection model assessed as prolongation of mouse survival at 10 mg/kg/day, iv for 5 days administered 24 hrs postinfection measured daily for 15 days. Type of assay: functional, organism-based.
For assay [34], the system named is Pichia kudriavzevii. In words: Antifungal activity against Candida krusei FMR9728 infected OF1 mouse disseminated infection model assessed as reduction in kidney tissue fungal burden at 40 mg/kg/day, po for 5 days administered 24 hrs postinfection measured after 24 hrs post treatment relative to control. Type of assay: functional, organism-based.
For assay [35], the system named is Pichia kudriavzevii. In words: Antifungal activity against 5 x 10^7 CFU Candida krusei FMR9729 infected OF1 mouse disseminated infection model assessed as prolongation of mouse survival at 10 mg/kg/day, iv for 5 days administered 24 hrs postinfection measured daily for 15 days. The assay is classed as functional, organism-based.
Assay [36] has as its system Pichia kudriavzevii. Kind of assay: Antifungal activity against Candida krusei FMR9728 infected OF1 mouse disseminated infection model assessed as reduction in kidney tissue fungal burden at 60 mg/kg/day, po for 5 days administered 24 hrs postinfection measured after 24 hrs post treatment relative to control. The assay is classed as functional, organism-based.
Assay [37] relates to Pichia kudriavzevii. In words: Antifungal activity against Candida krusei FMR9729 infected OF1 mouse disseminated infection model assessed as reduction in spleen tissue fungal burden at 40 mg/kg/day, po for 5 days administered 24 hrs postinfection measured after 24 hrs post treatment relative to control. Type of assay: functional, organism-based.
Assay [38] concerns Pichia kudriavzevii. Kind of assay: Antifungal activity against 5 x 10^7 CFU Candida krusei FMR9728 infected OF1 mouse disseminated infection model assessed as prolongation of mouse survival at 20 mg/kg/day, iv for 5 days administered 24 hrs postinfection measured daily for 15 days. Type of assay: functional, organism-based.

For `CC[C@@H]([C@H](C)O)n1ncn(-c2ccc(N3CCN(c4ccc(OC[C@@H]5CO[C@@](Cn6cncn6)(c6ccc(F)cc6F)C5)cc4)CC3)cc2)c1=O` [POSACONAZOLE], the result with Pichia kudriavzevii [1], with Pichia kudriavzevii [2], with Pichia kudriavzevii [4], in the assay on Pichia kudriavzevii [5], with Pichia kudriavzevii [6] and in the assay on Pichia kudriavzevii [8] was Active. Moreover, the outcome with Pichia kudriavzevii [9], in the assay with Pichia kudriavzevii [10], in the assay with Pichia kudriavzevii [11], in the assay with Pichia kudriavzevii [12], with Pichia kudriavzevii [13] and with Pichia kudriavzevii [14] was Active. Also, the MFC with Pichia kudriavzevii [3] was found to be 1 µg/mL (≈ 1.43 µM); in the assay with Pichia kudriavzevii [7] it was 2 µg/mL (≈ 2.85 µM). In addition, the values for the MIC50 against Pichia kudriavzevii [3] and against Pichia kudriavzevii [7] were 0.125 µg/mL (≈ 0.178 µM) and 0.25 µg/mL (≈ 0.357 µM), respectively.

Regarding `C[C@@H](c1ncncc1F)[C@](O)(Cn1cncn1)c1ccc(F)cc1F` [VORICONAZOLE], the outcome in the assay with Pichia kudriavzevii [15], in the assay with Pichia kudriavzevii [17], with Pichia kudriavzevii [21], in the assay with Pichia kudriavzevii [24], in the assay on Pichia kudriavzevii [26] and in the assay on Pichia kudriavzevii [27] was Active. In addition, the result with Pichia kudriavzevii [28], in the assay with Pichia kudriavzevii [30], in the assay with Pichia kudriavzevii [31], in the assay on Pichia kudriavzevii [33], in the assay on Pichia kudriavzevii [34] and in the assay with Pichia kudriavzevii [35] was Active. Moreover, the outcome with Pichia kudriavzevii [36] and in the assay on Pichia kudriavzevii [38] was Active. Also, the result in the assay with Pichia kudriavzevii [16], in the assay with Pichia kudriavzevii [18], with Pichia kudriavzevii [19], in the assay with Pichia kudriavzevii [20], in the assay with Pichia kudriavzevii [22] and in the assay with Pichia kudriavzevii [23] was inactive. Also, the outcome in the assay on Pichia kudriavzevii [25], in the assay on Pichia kudriavzevii [29], with Pichia kudriavzevii [32] and in the assay with Pichia kudriavzevii [37] was inactive. For the same compound, the MFC is 16 µg/mL (≈ 45.8 µM) against Pichia kudriavzevii [3] and > 16 µg/mL in the assay on Pichia kudriavzevii [7]. Also, the MIC50 worked out at 0.125 µg/mL (≈ 0.358 µM) in the assay with Pichia kudriavzevii [3] and 0.25 µg/mL (≈ 0.716 µM) with Pichia kudriavzevii [7].

By MFC is commonly meant the lowest tested concentration that kills the fungus rather than only halting it. The low end stands for greater fungicidal potency, the high end for weaker fungicidal potency. One may read the MIC50 as an inhibitory concentration at the 50% level, which refers to growth in some studies and to a panel of isolates in others.
